One series deals with P-p38. The series can be described thus: P-p38 levels (Western blotting), MDA-MB-231. It is filed as cell-based, human.
Series [1] deals with MDA-MB-231 cells. The series can be described thus: Total cellular cAMP measurement, MDA-MB-231. The format is cell-based, human. The procedure:
(§1) Total cellular cAMP measurement—The measurement of total cellular cAMP was done using a cAMP Biotrak ™ Enzymeimmunoassay (EIA) system (Amersham Biosciences, Piscataway, N.J.) according to the manufacturer's protocol. Briefly, 2000 cells were plated into each well of a 96 well plate. The next day cells were treated with increasing concentrations of ARA-211 or with vehicle for one hour. Alternatively, MDA-MB-231 cells were pre-treated with antagonists to the α1 (Prazosin, Sigma), α2 (Yohimbine, Sigma), β1 (Metoprolol, Sigma), and β2 (ICI 118.551, Sigma) adrenergic receptors at 100 nM for 15 minutes followed by treatment with 10 μM ARA-211 for 45 minutes. Cells were then lysed directly in the wells using the supplied lysis buffer. The lysate was transferred to a 96-well cAMP ELISA plate, and results were quantified using a Wallac Victor 2 plate reader.

The subject of series [2] is MDA-MB-231 cells. The series can be described thus: Immunohistochemistry of MDA-MB-231 xenograft tumors (P-Erk 1/2, Tunel, Ki-67). The format is in vivo, nude mice. As to conditions: 75 mpk/day, tumors removed on day 12. The text has this: Anti-tumor activity in nude mouse xenograft model—Female athymic nude (nu/nu) mice, 5-6 weeks old, were purchased from Charles River (Wilmington, Mass.) and allowed to acclimate in the animal facility for one week. After harvesting, A-549, SNB-19, ACHN, and HCT-116 cells were, resuspended in sterile PBS, and injected s.c. into the right and left flanks (10×10^6 cells per flank) of the mice as previously described (Sun et al., 2005). For MDA-MB-231, cells were harvested and resuspended in PBS (10×10^6 cells per 50 μl) and an equal volume of Matrigel (BD Biosciences, San Jose, Calif.). 100 μl of MDA-MB-231 cells in PBS/Matrigel were injected s.c. into the mammary fat pads between the 2nd and 3rd nipples on each side of the mice. Once the tumors reached approximately 200-300 mm^3 the mice were randomized and treated i.p. with 0.1 ml vehicle (PBS) or ARA-211. Each treatment group consisted of five mice (2 tumors per mouse, a total of 10 tumors). The tumor volumes were determined by measuring the length (l) and width (w) and calculating the volume (V=w^2l/2). Statistical significance between the control and treated animals was determined using a student's t test. Immunohistochemisty (IHC) and slide quantitation—Upon completion of the xenograft study, mice were euthanized and the tumors were removed and fixed in 10% buffered formalin for at least 24 hours. […] The IHC slides were analyzed at the Analytical Microscopy Core facility of the H. Lee Moffitt Cancer Center & Research Institute. The Ariol SL-50 automated image analysis system (Applied Imaging, Santa Clara, Calif.) was used for quantitation of each slide as previously described (Jiang et al., 2004). Briefly, high-resolution digital pictures were taken of the entire stained area of each slice of tumor tissue for automatic staining quantitation. […] Each slide analyzed consisted of 54,000 to 160,000 cells analyzed depending on the size of the tumor when resected. Significance of the quantitation was analyzed by a two-tailed student's t-test.

Series [3] concerns MDA-MB-231 cells. Nature of the series: Nude mouse xenograft model, MDA-MB-231 (mammary fat pads). It is filed as in vivo, nude mice. As to conditions: MDA-MB-231 xenograft; i.p. 200 mpk/day. The text has this: Anti-tumor activity in nude mouse xenograft model—Female athymic nude (nu/nu) mice, 5-6 weeks old, were purchased from Charles River (Wilmington, Mass.) and allowed to acclimate in the animal facility for one week. After harvesting, A-549, SNB-19, ACHN, and HCT-116 cells were, resuspended in sterile PBS, and injected s.c. into the right and left flanks (10×10^6 cells per flank) of the mice as previously described (Sun et al., 2005). For MDA-MB-231, cells were harvested and resuspended in PBS (10×10^6 cells per 50 μl) and an equal volume of Matrigel (BD Biosciences, San Jose, Calif.). 100 μl of MDA-MB-231 cells in PBS/Matrigel were injected s.c. into the mammary fat pads between the 2nd and 3rd nipples on each side of the mice. Once the tumors reached approximately 200-300 mm^3 the mice were randomized and treated i.p. with 0.1 ml vehicle (PBS) or ARA-211. Each treatment group consisted of five mice (2 tumors per mouse, a total of 10 tumors). The tumor volumes were determined by measuring the length (l) and width (w) and calculating the volume (V=w^2l/2). Statistical significance between the control and treated animals was determined using a student's t test.

Series [4] relates to HCT-116 cells. The series can be described thus: Total cellular cAMP measurement, HCT-116. It is filed as cell-based, human. The method, then:
as §1

Series [5] deals with HCT-116 cells. Nature of the series: Apoptosis assay (Cell Death Detection ELISA), HCT-116. The format is cell-based, human. The conditions noted are these: 48 hours, two single values, dihydrochloride. The procedure:
Apoptosis Assay—Apoptosis was analyzed using the Cell Death Detection ELISA (Roche, Indianapolis, Ind.) measuring cytoplasmic histone-associated mono- and oligonucleosome DNA fragments. Procedures were carried out according to the manufacturers protocol. Briefly, 1×10^5 cells were plated in 60 mm dishes and treated with various doses of ARA-211 or vehicle for 48 hours. Cells were lysed with the provided lysis buffer and lysate was incubated on the ELISA plate for 1 hour to capture the histone associated DNA indicative of apoptotic cells. Anti-DNA peroxidase conjugated antibody was added to detect the cleaved DNA and the microplate was washed and developed with ABTS substrate which was quantitated by microplate reader at 405 nm.

For a further series, the system named is ACHN cells. Nature of the series: Anchorage-dependent growth (MTT assay), ACHN. It is filed as cell-based, human. The method, then: MTT Assay—2000 cells per well were plated into 96 well tissue culture plates, and the cells were allowed to attach overnight at 37° C. with 10% CO2. Cells were then treated with increasing concentrations of ARA-211, or vehicle (DMSO) and incubated for four days. At that time treatment medium was removed and replaced with 100 μl of lmg/ml MTT (Sigma-Aldrich, St. Louis, Mo.) in media and incubated at 37° C., 10% CO2 for 3 hours. After 3 hours the MTT media was removed and replaced with 100 μl/well of DMSO, rocked at room temperature for 5 minutes, then absorbance read at 540 nm on a micro-plate reader.

Where “and” joins values, the source holds several entries; their conditions need not be identical. Identical values can stand only once. Counter-ions that a name gives are not always drawn.

With `CC(C)(C)NCC(O)c1ccc(O)c(CO)n1` (centres unmarked) [ARA-211, 2-hydroxymethyl-3-hydroxy-6-(1-hydroxy-2-tert-butylaminoethyl) pyridine, dihydrochloride], the P-p38 levels result with P-p38 is recorded as “not”. Further, in the series on MDA-MB-231 cells [1], the “cAMP (Fold Induction)” value was determined as 16.7 ± 5.4 Fold and the “formation of cAMP” value was “induced the formation of CAMP”. In addition, the “adrenergic receptor selectivity (which antagonist blocks cAMP induction)” value in the series on MDA-MB-231 cells [1] (β1, β2, α1, α2 antagonists 100 nM pre-treatment, 10 μM ARA-211) is “highly selective for β2 adrenergic receptors”. Further, in the series on MDA-MB-231 cells [2], the “P-Erk 1/2 levels in tumors (IHC)” value is “suppresses P-Erk 1/2 levels”, the “apoptosis in tumors (Tunel)” value is “induces apoptosis” and the “tumor cell proliferation in tumors (Ki-67)” value is recorded as “inhibits tumor cell growth”. The growth of tumors entry with MDA-MB-231 cells [3] is recorded as “caused tumor regression”. Moreover, the “cAMP (Fold Induction)” value in the series on HCT-116 cells [4] came out at 1.1 ± 0.1 Fold. Further, the “Apoptosis (% Induction)” value with HCT-116 cells [5] was 0% and 1.2%. The “Anchorage Dependent Growth (% Inhibition)” value with ACHN cells amounted to 62 ± 12.7%.

Values taken from US7713960B2, “Inhibition of the Raf/Mek/P-Erk pathway for treating cancer” (University of South Florida, priority 2005, dated 2010).
